Tests used:
[1] = system: B-16 melanoma cells; assay: Cell-survival rate (cytotoxicity) in B-16 melanoma cell culture; type: cell-based
From the text: (§1) The B-16 melanoma cell is one having an ability of producing melanin and therefore, the cells naturally grown by cell culture blacken. If a substance capable of inhibiting melanogenesis is present in the cell growth system during the cell growth, the blackening of the cells is inhibited and they relatively whiten. Accordingly, the whitening effect of each candidate substance can be evaluated on the basis of the degree of whiteness observed when adding a test sample relative to the degree of blackness observed for a control. […] To evaluate this cytotoxicity, the cell survival rate observed when adding a test sample to the system is compared with that observed for the control. Thus, the substantial whitening effect can be evaluated on the basis of the results of these cell-whitening test and cytotoxicity test.
The cell-survival rate at each added sample concentration can be determined according to the following formula
Cell-Survival Rate (%)=(A/B)×100
Wherein A represents the viable cell count observed for the system to which a sample is added and B represents the number of cells observed for the control system.

[2] = system: B-16 melanoma cells; assay: Test for evaluating melanogenesis-inhibitory function (cell-whitening degree) in cell culture systems using B-16 melanoma cells; type: cell-based; set-up: key to Whitening degree: ++: The whitening degree is higher than that observed when adding 450 μg/mL of vitamin C-magnesium phosphate.; +: The whitening degree is almost identical to that observed when adding 450 μ g/mL of vitamin C-magnesium phosphate.; ±: The whitening degree is not higher than that observed when adding 450 μg/mL of vitamin C-magnesium phosphate, but higher than that of the control.; −: The whitening degree is almost identical to that observed for the control
From the text: as §1
An example of such a method for evaluating the melanogenesis-inhibitory function in a cell culture system using B-16 melanoma cells comprises, for instance, the steps of dispensing 2 ml/well of a culture medium to each well of a 6-well plate, inoculating a desired amount of melanoma cells to the medium, cultivating the cells by allowing the medium to stand at 37° C. and a carbon dioxide concentration of 5%. On the following day, a solution of a test sample is added and mixed with the culture medium to a predetermined concentration and the cell cultivation is continued. After 5 days from the initiation of the cultivation, the culture medium is replaced with fresh one and the solution of the test sample is again added thereto. On the next day, the medium is removed to thus recover the cells, followed by washing them with PBS (phosphate-buffered saline) and the determination of the degree of whiteness to thus evaluate the whitening effect of the test sample. In this connection, the melanogenesis-inhibitory function is evaluated by comparing the results thus obtained with the degree of whiteness observed when the same procedures are repeated using the vitamin C-magnesium phosphate as a known whitening agent instead of the test sample solution (positive control) and that observed when the procedures are repeated without addition of any test sample (control).
A culture medium was dispensed to wells of a 6-well plate (2 mL/well each), followed by inoculation of a desired amount of B-16 melanoma cells on each well, allowing the wells to stand at 37° C. and 5% CO2 to thus cultivate the cells. On the day subsequent thereto, a sample solution prepared was added to the wells with stirring and the cultivation was continued. The culture medium was replaced with fresh one on the 5th day from the initiation of the cultivation and the sample solution was again added to the wells. On the next day, the culture medium was removed to recover the cells, followed by washing them with PBS (phosphate buffered physiological saline) and then evaluation of the cell-whitening degree In this respect, the melanogenesis-inhibitory function was evaluated by comparing the cell-whitening degree thus obtained with that observed when the same procedures used above were repeated except that vitamin C-magnesium phosphate as a known whitening agent (positive control) was substituted for the sample solution used above and that observed when the same procedures used above were repeated except that any sample was not added (control), according to the following evaluation criteria.
The evaluation criteria for the cell-whitening degree are as follows: […]

[3] = Solubility (oil / water)
[4] = concentration 2 ppm, B-16 melanoma cells
[5] = concentration 4 ppm, B-16 melanoma cells
[6] = concentration 6 ppm, B-16 melanoma cells
[7] = concentration 8 ppm, B-16 melanoma cells
[8] = concentration 10 ppm, B-16 melanoma cells
[9] = concentration 15 ppm, B-16 melanoma cells
[10] = concentration 25 ppm, B-16 melanoma cells
[11] = concentration 50 ppm, B-16 melanoma cells

Compound	cell-survival rate at the added concentration showing a whitening degree almost identical to vitamin C-magnesium phosphate at 450 ppm ([1]; mouse)	Cell-Survival Rate ([1]; mouse, 2 ppm) [%]	Cell-Survival Rate ([1]; mouse, 4 ppm) [%]	Cell-Survival Rate ([1]; mouse, 6 ppm) [%]	Cell-Survival Rate ([1]; mouse, 8 ppm) [%]	Cell-Survival Rate ([1]; mouse, 10 ppm) [%]	Cell-Survival Rate ([1]; mouse, 15 ppm) [%]	Cell-Survival Rate ([1]; mouse, 25 ppm) [%]	Cell-Survival Rate ([1]; mouse, 50 ppm) [%]	Cell-Survival Rate ([1]; mouse, 100 ppm) [%]	Cell-Survival Rate ([1]; mouse, 200 ppm) [%]	Whitening degree [2, 4]	Whitening degree [2, 5]	Whitening degree [2, 6]	Whitening degree [2, 7]	Whitening degree [2, 8]	Whitening degree [2, 9]	Whitening degree [2, 10]	Whitening degree [2, 11]	oil-solubility, in words [3]	further results
C=C(C)[C@@H]1CC[C@]2(C(=O)O)CC[C@]3(C)[C@H](CC[C@@H]4[C@@]5(C)CC[C@H](O)C(C)(C)[C@@H]5CC[C@]43C)[C@@H]12 [Betulinic acid, betulinic acid]	99-100%	100	100	100	100	99	83	76	69	60	51	−	±	±	±	+	+	+	+	oil-soluble	
CC1(C)CC[C@]2(C(=O)O)CC[C@]3(C)C(=CC[C@@H]4[C@@]5(C)C[C@@H](O)[C@H](O)C(C)(C)[C@@H]5CC[C@]43C)[C@@H]2C1 [maslinic acid]																				oil-soluble	solubility in water, in words [3]: hardly soluble in water
CC1(C)CC[C@]2(CO)CC[C@]3(C)C(=CC[C@@H]4[C@@]5(C)CC[C@H](O)C(C)(C)[C@@H]5CC[C@]43C)[C@@H]2C1 [Erythrodiol, erythrodiol]	99-100%	100	100	100	100	100	100	100	97	85	72	±	±	±	±	±	±	+	+	oil-soluble	
C[C@H]1[C@H](C)CC[C@]2(CO)CC[C@]3(C)C(=CC[C@@H]4[C@@]5(C)CC[C@H](O)C(C)(C)[C@@H]5CC[C@]43C)[C@H]12 [Uvaol, uvaol]	99-100%	100	100	100	100	100	100	90	82	71	61	−	−	−	±	+	+	+	+	oil-soluble	
C=C(C)[C@@H]1CC[C@]2(CO)CC[C@]3(C)[C@H](CC[C@@H]4[C@@]5(C)CC[C@H](O)C(C)(C)[C@@H]5CC[C@]43C)[C@@H]12 [Betulin, betulin]												−	−	±	±	±	+	+	+	oil-soluble	Cell-Survival Rate [1, 4]: 100%; Cell-Survival Rate [1, 5]: 100%; Cell-Survival Rate [1, 6]: 100%; Cell-Survival Rate [1, 7]: 100%; Cell-Survival Rate [1, 8]: 100%; Cell-Survival Rate [1, 9]: 100%; Cell-Survival Rate [1, 10]: 100%; Cell-Survival Rate [1, 11]: 100%
CC1(C)CC[C@]2(C(=O)O)CC[C@]3(C)C(=CC[C@@H]4[C@@]5(C)C[C@@H](O)[C@H](O)C(C)(C)[C@@H]5CC[C@]43C)[C@@H]2C1 [Purified maslinic acid 2, maslinic acid]												±	+	++	++	++					Cell-Survival Rate [1, 4]: 100%; Cell-Survival Rate [1, 5]: 100%; Cell-Survival Rate [1, 6]: 100%; Cell-Survival Rate [1, 7]: 88%; Cell-Survival Rate [1, 8]: 69%; whitening effect, times that observed for vitamin C-magnesium phosphate ([2]; from Table 1, positive control vitamin C-magnesium phosphate 450 ppm): about 110 times; added concentration at which the whitening effect is almost identical to that of the positive control ([2]; positive control vitamin C-magnesium phosphate 450 ppm, B-16 melanoma cells): 4 ppm
